Laboratory results: publication PMC5566973 (Frontiers in Pharmacology, 2017)
Where two headings read alike, the source gives them in different places.

Assays:
[1] = Metabolic stability in human liver microsomes; conditions: for residual percentage: human liver microsomes 0.5 mg protein/mL, 2 μM, after incubation; for half-life at 2 μM / microsomal CLint at 2 μM: human, liver microsomes
[2] = test system: MDCK-MRP2 cell monolayers; assay: Bidirectional transport in MDCK-MRP2 cell monolayers with MRP2 inhibitors; type: in vitro ADME, canine; conditions: MDCK-MRP2, 2 μM
Procedure: (§1) Caco-2, MDCK and MDCK-MRP2 cells were donated by Prof. Yan Xie and Yueming Ma from Shanghai University of Traditional Chinese Medicine. The cells were grown in culture dishes (Corning® Costar, Cambridge, MA, USA) using DMEM supplemented with 10% FBS, 1% NEAA and 1% penicillin-streptomycin solution. The cells were cultured in 5% CO2 and […] with 90% relative humidity at 37°C. The medium was replaced every other day during incubation. The cells were passaged every 3–4 days between 70 and 80% confluence at a 1:5 split ratio using 0.25% trypsin-EDTA. For the transport experiments, the cells from passages between 30 and 45 were seeded at 1 × 10^5 cells/cm^2 onto permeable polycarbonate inserts (0.45 μm pore size, seeding surface of 0.6 cm^2, Millipore, MA, USA) in 24-well plastic plates. The media in the culture plates were changed every other day for the first week after seeding and were replaced daily afterward. […] The cells were used for the transport experiments 21–28 (Caco-2) or 5–7 (MDCK and MDCK-MRP2) days after seeding, and only monolayers with a TEER-value above 420 Ω cm^2 were used during the studies.
(§2) The apical (AP) and basolateral (BL) sides are typical of polarized Caco-2, MDCK and MDCK-MRP2 epithelial cells. Before the experiments, the polarized cell monolayers were washed twice with warm HBSS solution and subsequently preincubated (37°C, 30 min). Afterward, HBSS solution on both sides of the cell monolayers was removed using a mini desktop vacuum pump. […] The final DMSO concentration in the HBSS or drug mixture was below 0.5%. The monolayers were incubated at 37°C, and 100 μL samples were taken at 30, 60, 90, and 120 min from the acceptor compartment and immediately replaced with the same volume of prewarmed fresh blank HBSS. TEER measurements for assessing the membrane integrity took place before and after the experiments.
(§3) The apparent permeability coefficients (Papp) and ER were calculated as Equations (2) and (3): […]
(§4) where dQ/dt is the steady-state flux, A is the membrane surface area, and C0 is the initial drug concentration in the donor compartment. PappBA is the Papp-value measured in BL to AP direction and PappAB is the Papp-value measured in AP to BL direction. It indicated the involvement of an active transport process when the ER-value is above 1.5 (Hubatsch et al., [2007]).

MRP2 = assay: as above; type: in vitro ADME, canine; conditions: dog, MDCK-MRP2, 2 μM; for efflux ratio at 120 min, 2 μM: read-out: ER
Procedure: as §1, §2, §3, §4

[3] = design: method as in Zhang, 2013; Shi et al., 2014; conditions: dogs, oral total alkaloid extracts from P. harmala 140 mg/kg; ref Zhang, 2013; Shi et al., 2014; cited from earlier work
[4] = rats, oral total alkaloid extracts from P. harmala 140 mg/kg; ref Zhang, 2013; Shi et al., 2014; cited from earlier work
[5] = Urinary and fecal excretion in rats; type: in vivo, Sprague-Dawley rats; conditions: for Cumulative excretion of the analyte, SUM of urine and feces: within 72 h
Procedure: Access to water was maintained all the time. Samples including blank urine and feces before dosing, urine and feces from 0 to 24 h, 24 to 48 h, and 48 to 72 h after dosing were collected and stored at −80°C until analysis.
Urine samples were thawed and an aliquot of 100 μL was processed for detection as described in Section Drug Analysis. Feces were homogenized and then weighed, added 6-folds of acetonitrile, extracted by ultrasonic wave for 1 h and then centrifuged. An aliquot of 100 μL was also processed for detection as described in Section Drug Analysis.

[6] = with MK571 0.05 mM (50 μM), + MK571 0.05 mM (MRP2)
[7] = with probenecid 0.2 mM (200 μM), + Probenecid 0.2 mM (MRP2)
[8] = after oral harmaline 40.0 mg/kg, 24 h
[9] = after oral harmaline 40.0 mg/kg, 48 h
[10] = after oral harmaline 40.0 mg/kg, 72 h
[11] = after oral harmaline 40.0 mg/kg
[12] = after oral harmine 40.0 mg/kg, 24 h
[13] = after oral harmine 40.0 mg/kg, 48 h
[14] = after oral harmine 40.0 mg/kg, 72 h

| Structure (SMILES) | residual percentage [1] [%] | half-life at 2 μM [1] [h] | microsomal CLint at 2 μM [1] [µL/min/mg] | Modulatory effect ([2]; + MK571 0.05 mM (MRP2)) | Modulatory effect ([2]; + Probenecid 0.2 mM (MRP2)) | Papp A→B at 120 min, 2 μM (MRP2; [6]) [×10⁻⁶ cm/s] | Papp B→A at 120 min, 2 μM (MRP2; [6]) [×10⁻⁶ cm/s] | Papp A→B at 120 min, 2 μM (MRP2; [7]) [×10⁻⁶ cm/s] | Papp B→A at 120 min, 2 μM (MRP2; [7]) [×10⁻⁶ cm/s] | Papp A→B at 120 min, 2 μM (MRP2; Control (no inhibitor)) [×10⁻⁶ cm/s] | Papp B→A at 120 min, 2 μM (MRP2; Control (no inhibitor)) [×10⁻⁶ cm/s] | F-value (absolute bioavailability) [3] [%] | F-value (absolute bioavailability) [4] [%] | Cumulative excretion in feces (%) of the analyte [5, 8] [%] | Cumulative excretion in urine (%) of the analyte [5, 8] [%] | Cumulative excretion in feces (%) of the analyte [5, 9] [%] | Cumulative excretion in urine (%) of the analyte [5, 9] [%] | Cumulative excretion in feces (%) of the analyte [5, 10] [%] | Cumulative excretion in urine (%) of the analyte [5, 10] [%] | Cumulative excretion of the analyte, SUM of urine and feces [5, 11] [%] | other results |
| --- | --- | --- | --- | --- | --- | --- | --- | --- | --- | --- | --- | --- | --- | --- | --- | --- | --- | --- | --- | --- | --- |
| COc1ccc2c3c([nH]c2c1)C(C)=NCC3 [Harmaline] | 64.16 | 2.46 | 9.4 | − | − | 31.8 ± 1.37 | 40.9 ± 5.48 | 32.9 ± 2.23 | 41.9 ± 5.58 | 24.3 ± 2.72 | 32.4 ± 3.81 | 24.99 | 63.22 | 0.14 ± 0.10 | 4.00 ± 4.36 | 0.19 ± 0.12 | 4.71 ± 4.20 | 0.19 ± 0.12 | 4.85 ± 4.17 | 5.05 ± 4.12 | efflux ratio at 120 min, 2 μM (MRP2; [6]): 1.34; efflux ratio at 120 min, 2 μM (MRP2; [7]): 1.28; efflux ratio at 120 min, 2 μM (MRP2; Control (no inhibitor)): 1.33 |
| COc1ccc2c(c1)[nH]c1c(C)nccc12 [Harmine] | 54.25 | 1.65 | 14 | + | + | 20.8 ± 1.49 | 11.8 ± 1.25 | 10.1 ± 1.69 | 8.62 ± 1.05 | 3.55 ± 0.4 | 8.18 ± 0.98 | 5.33 | 4.96 | 0.01 ± 0.01 | 0.03 ± 0.01 | 0.02 ± 0.01 | 0.04 ± 0.01 | 0.02 ± 0.01 | 0.05 ± 0.01 | 0.07 ± 0.01 | Cumulative excretion in feces (%) of the analyte [5, 12]: 0.57 ± 0.37%; Cumulative excretion in urine (%) of the analyte [5, 12]: 0.02 ± 0.02%; Cumulative excretion in feces (%) of the analyte [5, 13]: 0.65 ± 0.36%; Cumulative excretion in urine (%) of the analyte [5, 13]: 0.02 ± 0.03%; Cumulative excretion in feces (%) of the analyte [5, 14]: 0.65 ± 0.36%; Cumulative excretion in urine (%) of the analyte [5, 14]: 0.03 ± 0.03%; Cumulative excretion of the analyte, SUM of urine and feces ([5]; after oral harmine 40.0 mg/kg): 0.69 ± 0.36% |
